Measured values published in ChEMBL document CHEMBL1142756, “Total synthesis and antiangiogenic activity of cyclopentane analogues of fumagillol” (Bioorg Med Chem Lett, 2005).
Converted amounts (≈) assume the structure as drawn.

Experiments:
Format in all cases: functional, cell-based
[1] = Inhibitory concentration against Calf pulmonary artery endothelial cells (CPAE) measured for endothelial cell proliferation activity; settings: Bos taurus
[2] = tested on: P388; test: Inhibitory concentration against Murine leukemia P388 measured for endothelial cell proliferation activity; settings: Mus musculus
[3] = Inhibitory concentration against Lymphoma EC4 cells measured for endothelial cell proliferation activity; settings: Homo sapiens

With `CO[C@@H]1[C@H](OC(=O)/C=C/C=C/C=C/C=C/C(=O)O)CC[C@]2(CO2)[C@H]1[C@@]1(C)OC1CC=C(C)C` (single isomer, unassigned) [FUMAGILLIN] the IC50 [1] was 0.003 µg/mL (≈ 0.00654 µM), the IC50 [2] was at least 10 µg/mL and the IC50 [3] was 0.0016 µg/mL (≈ 0.00349 µM).
`CO[C@@H]1[C@H](OC(=O)NC(=O)CCl)C[C@]2(CO2)[C@H]1[C@@]1(C)O[C@@H]1CCC(C)C` gave an IC50 [1] of 0.088 µg/mL (≈ 0.226 µM), an IC50 [2] of at least 10 µg/mL and an IC50 [3] of 0.3 µg/mL (≈ 0.769 µM).
Work on `CO[C@@H]1[C@H](OC(=O)NC(=O)CCl)CC[C@]2(CO2)[C@H]1[C@@]1(C)OC1CC=C(C)C` (single isomer, unassigned) [O-CHLOROACETYLCARBAMOYLFUMAGILLOL] yielded an IC50 [1] of 0.0002 µg/mL (≈ 0.000498 µM), an IC50 [2] of at least 10 µg/mL and an IC50 [3] of 0.0038 µg/mL (≈ 0.00946 µM).
`CO[C@@H]1[C@H](OC(=O)NC(=O)CCl)C[C@]2(CO2)[C@H]1[C@]1(C)O[C@H]1CCC(C)C` showed an IC50 [1] of 0.57 µg/mL (≈ 1.46 µM), an IC50 [2] of at least 10 µg/mL and an IC50 [3] of 1.1 µg/mL (≈ 2.82 µM).
